Legend:
[1] = biological target: human MRP2 (Homo sapiens, UniProt Q92887); assay: ATP-dependent transport of [3H]BSP into inside-out membrane vesicles from HEK-MRP2 cells; format: biochemical
Description: Vesicle Transport Studies. Transport of [^3H]BSP into membrane vesicles was measured by the rapid filtration method (Keppler et al. 1998). Briefly, membrane vesicles (30 μg protein) were incubated in the presence of 4 mM ATP, 10 mM creatine phosphate, 100 μg/ml creatine kinase, and [^3H]BSP in an incubation buffer (250 mM sucrose, 10 mM Tris/HCl, pH 7.4) in a final volume of 55 μl at 37° C. Aliquots (15 μl) were taken at the indicated time points, diluted in 1 ml ice-cold incubation buffer, and immediately filtered through presoaked nitrocellulose membrane (0.2 μm pore size, Schleicher & Schüll, Dassel, Germany). Filters were rinsed twice with 5 ml of incubation buffer, dissolved in liquid scintillation fluid, and counted for radioactivity. In control experiments, ATP was replaced by an equal concentration of 5′-AMP. ATP-dependent transport was calculated by subtracting values obtained in the presence of 5′-AMP from those obtained in the presence of ATP.

[2] = system: OATP2 and MRP2 (MDCK-OATP2/MRP2 cells); assay: Transcellular transport of BSP by MDCK-OATP2/MRP2 cells; format: cell-based, human; conditions: 1 μM [3H]BSP basolateral, 30 min, 37° C.; MDCK-OATP2/MRP2 vs MDCK-Co and MDCK-OATP2
Text: FIG. 13: Transcellular transport of BSP by MDCK-OATP2/MRP2 cells.
Proteins were separated by SDS-PAGE (7.5% gels).

[3] = system: MDCK-MRP2/OATP8 cells; assay: Radio-HPLC analysis of [3H]BSP after transport by MDCK-MRP2/OATP8 cells; format: in vitro ADME; conditions: 1 μM [3H]BSP basolateral, 30 min, acivicin 5 mM
Description: HPLC Analysis of [^3H]BSP. MDCK-MRP2/OATP8 cells grown on Transwell membrane inserts were incubated with 1 μM [^3H]BSP in the basolateral compartment for 30 min at 37° C. after a pre-incubation with 5 mM acivicin, an inhibitor of g-glutamyltransferase (Allen et al. 1980), in both compartments for 30 min at 37° C. The radioactivity in the apical compartment and in the cell lysate was analyzed by HPLC. Reversed-phase HPLC analyses on a C18 Hypersil column ([…] particles; Shandon, Runcorn, UK) were performed as described (Cui et al. 2001) using a linear gradient elution from 100% buffer A (45% methanol/55% water containing […] tetrabutylammonium hydroxide at pH 6.0) to 100% buffer B (90% methanol/10% water containing 2 mM tetrabutylammonium hydroxide at pH 6.0) at a flow rate of 1 ml/min. [^3H]BSP-SG was synthesized for the HPLC analyses by incubating 1 mM GSH, 0.4 mM [^3H]BSP (1 μCi), and 5 mM acivicin with 350 μl mouse liver cytosol in a final volume of 500 μl for 1 h at 37° C. After deproteinization with 3 volume of methanol 200 μl supernatant was analyzed by HPLC as described above.

[4] = system: human OATP8 and MRP2 (MDCK-MRP2/OATP8 cells)
Description: For transport assays MDCKII cells were grown on Transwell membrane inserts (24 mm diameter, 0.4 μm pore size, Corning Costar) at confluency for 3 days and induced with 10 mM sodium butyrate for 24 h. […] After the time periods indicated, the radioactivity in the opposite compartments was measured. The intracellular accumulation of the radioactivity was determined by lysing the cells with 2 ml 0.2% SDS in water and measuring the radioactivity in cell lysates.
To study the transcellular transport of Fluo-3, cells were incubated with 2 μM Fluo-3 in the basolateral compartments at 37° C. for 30 min.
To study the transcellular transport of rifampicin, cells were incubated with 50 μM rifampicin in the basolateral compartments at 37° C. for 30 min. To determine the concentration of rifampicin in the apical compartments its absorption at 475 nm was measured with a spectrophotometer (Ultrospec III, Amersham-Pharmacia, Freiburg, Germany). A calibration curve for the calculation of the concentrations of rifampicin was determined in the concentration range between 1 and 50 μM.

[5] = biological target: T1, human OATP8 (MDCK-OATP8 cells) (Homo sapiens, UniProt Q9NPD5); assay: [3H]BSP accumulation and efflux in MDCK-OATP8 cells on Transwell membrane inserts; format: cell-based; parameters: expressed in transfected cells
T1 sequence (Q9NPD5 1-702): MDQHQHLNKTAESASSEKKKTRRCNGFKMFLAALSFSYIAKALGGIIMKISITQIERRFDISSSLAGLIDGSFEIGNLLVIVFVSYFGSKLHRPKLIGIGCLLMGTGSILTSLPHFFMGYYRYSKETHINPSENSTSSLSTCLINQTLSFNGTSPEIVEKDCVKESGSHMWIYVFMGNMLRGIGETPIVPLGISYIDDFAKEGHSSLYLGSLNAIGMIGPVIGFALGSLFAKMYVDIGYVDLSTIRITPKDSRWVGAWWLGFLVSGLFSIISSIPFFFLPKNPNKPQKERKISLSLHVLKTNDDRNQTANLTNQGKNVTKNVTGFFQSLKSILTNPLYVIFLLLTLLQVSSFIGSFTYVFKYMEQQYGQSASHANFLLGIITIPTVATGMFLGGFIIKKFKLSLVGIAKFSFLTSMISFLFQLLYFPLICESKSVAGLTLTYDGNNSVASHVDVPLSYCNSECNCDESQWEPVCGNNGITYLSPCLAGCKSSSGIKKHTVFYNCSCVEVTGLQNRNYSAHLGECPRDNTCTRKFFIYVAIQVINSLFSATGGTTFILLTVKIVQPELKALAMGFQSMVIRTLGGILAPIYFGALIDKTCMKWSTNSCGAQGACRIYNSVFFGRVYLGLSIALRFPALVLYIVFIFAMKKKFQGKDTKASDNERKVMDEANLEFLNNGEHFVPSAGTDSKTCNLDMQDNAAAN

Sequence of human MRP2 (Q92887 whole entry): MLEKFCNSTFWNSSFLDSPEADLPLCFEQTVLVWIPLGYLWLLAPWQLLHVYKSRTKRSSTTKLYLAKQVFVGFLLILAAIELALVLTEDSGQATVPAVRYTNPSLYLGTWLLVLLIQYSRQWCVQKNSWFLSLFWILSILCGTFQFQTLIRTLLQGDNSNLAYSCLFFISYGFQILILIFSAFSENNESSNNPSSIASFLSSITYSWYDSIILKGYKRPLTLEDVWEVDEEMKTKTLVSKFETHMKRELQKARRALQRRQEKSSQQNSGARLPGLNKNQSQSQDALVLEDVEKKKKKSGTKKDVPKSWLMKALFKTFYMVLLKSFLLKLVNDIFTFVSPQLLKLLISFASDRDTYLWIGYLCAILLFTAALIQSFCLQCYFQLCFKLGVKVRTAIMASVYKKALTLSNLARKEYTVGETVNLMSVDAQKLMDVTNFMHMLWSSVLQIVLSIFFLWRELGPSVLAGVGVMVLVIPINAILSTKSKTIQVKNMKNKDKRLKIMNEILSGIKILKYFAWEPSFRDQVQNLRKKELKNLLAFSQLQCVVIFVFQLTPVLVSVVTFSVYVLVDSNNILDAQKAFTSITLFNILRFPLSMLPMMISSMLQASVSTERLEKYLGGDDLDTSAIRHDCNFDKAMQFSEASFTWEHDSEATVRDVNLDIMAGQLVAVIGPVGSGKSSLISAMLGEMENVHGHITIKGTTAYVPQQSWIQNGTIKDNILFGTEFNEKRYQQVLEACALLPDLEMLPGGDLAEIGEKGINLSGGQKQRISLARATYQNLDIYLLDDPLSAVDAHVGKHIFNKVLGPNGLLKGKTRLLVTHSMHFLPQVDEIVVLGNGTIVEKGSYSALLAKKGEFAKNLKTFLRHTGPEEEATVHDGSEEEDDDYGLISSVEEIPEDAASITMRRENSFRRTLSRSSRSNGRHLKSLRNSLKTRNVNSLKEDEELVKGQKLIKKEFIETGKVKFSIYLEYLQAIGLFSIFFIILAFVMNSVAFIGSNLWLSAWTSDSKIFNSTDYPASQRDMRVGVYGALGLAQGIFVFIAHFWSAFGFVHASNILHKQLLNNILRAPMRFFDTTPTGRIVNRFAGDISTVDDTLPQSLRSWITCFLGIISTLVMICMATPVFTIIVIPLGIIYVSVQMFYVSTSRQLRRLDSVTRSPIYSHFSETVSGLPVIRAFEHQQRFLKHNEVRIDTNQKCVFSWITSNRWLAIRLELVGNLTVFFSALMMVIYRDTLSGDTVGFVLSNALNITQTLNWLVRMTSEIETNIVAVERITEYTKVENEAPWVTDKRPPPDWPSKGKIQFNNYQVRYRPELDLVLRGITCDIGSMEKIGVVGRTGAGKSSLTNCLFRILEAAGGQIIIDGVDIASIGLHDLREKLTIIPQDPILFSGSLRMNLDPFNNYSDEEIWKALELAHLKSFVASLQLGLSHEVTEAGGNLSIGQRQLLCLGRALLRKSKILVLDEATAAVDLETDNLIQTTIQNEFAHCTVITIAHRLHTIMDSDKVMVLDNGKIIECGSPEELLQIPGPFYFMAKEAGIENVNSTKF

O=C1OC(c2ccc(O)c(S(=O)(=O)O)c2)(c2ccc(O)c(S(=O)(=O)O)c2)c2c(Br)c(Br)c(Br)c(Br)c21 [BSP, sulfobromophthalein]
transport of [3H]BSP into membrane vesicles from HEK-MRP2 cells ([1]; 1 μM, ATP vs 5'-AMP): transported ATP-dependently
accumulation of [3H]BSP in membrane vesicles ([1]; HEK-MRP2 vs control-transfected HEK-Co vesicles): significantly higher
rate of transcellular transport of BSP [2]: significantly higher
radioactivity in the apical compartment and in the cells with the retention time of unconjugated [3H]BSP [3]: > 98%
intracellular [3H]BSP level remaining after 30 min efflux [4]: significantly lower
transcellular transport (basolateral to apical) [4]: marked transcellular transport
rate of transfer from the basolateral to the apical compartment, double-transfected versus single-transfected cells ([4]; human, pH 7.3): at least 6 times
intracellular accumulation of [3H]BSP ([5]; 1 μM basolateral, MDCK-OATP8 or MDCK-MRP2/OATP8 vs MDCK-Co and MDCK-MRP2 cells): significantly higher
efflux of [3H]BSP, route of release ([5]; MDCK-OATP8 cells loaded with 1 μM for 30 min, then 30 min efflux): mainly across the basolateral membrane
